Results as given in patent publication US20070149525A1, “Methods of treating amyloidosis using aryl-cyclopropyl derivative aspartyl protease inhibitors” (priority 2005, published 2007).
“And” between values parts separate entries of the source, which are not always exact repeats. Identical values can stand only once.

tested on: beta-secretase (BACE) versus cathepsin D (catD); experiment: CatD/BACE selectivity (ratio of IC50 values); assay type: biochemical; details: each value average of four experimental runs; multiple values = more than one experiment
Procedure: Investigation of potential beta-secretase inhibitors produced compounds with increased selectivity for beta-secretase over other aspartyl proteases such as cathepsin D (catD), cathepsin E (catE), Human Immunodeficiency Viral (HIV) protease, and renin. Selectivity was calculated as a ratio of inhibition (IC50) values in which the inhibition of beta-secretase was compared to the inhibition of other aspartyl proteases.
The compounds of formula (I) can be selective for beta-secretase versus catD.
In the following examples, each value is an average of four experimental runs and multiple values for one compound indicate that more than one experiment was conducted.

First: CC(=O)NC(Cc1cc(F)cc(F)c1)C(O)CNC1(c2cccc(C3CC4CCC3C4)c2)CC1 (centres unmarked) [Example 23.1, N-(4-(1-(3-(bicyclo[2.2.1]heptan-2-yl)phenyl)cyclopropylamino)-1-(3,5-difluorophenyl)-3-hydroxybutan-2-yl)acetamide]
Second: CC(=O)NC(Cc1cc(F)cc(F)c1)C(O)CNC1(c2cccc(C3CCCC3)c2)CC1 (centres unmarked) [Example 23.2, N-(4-(1-(3-cyclopentylphenyl)cyclopropylamino)-1-(3,5-difluorophenyl)-3-hydroxybutan-2-yl)acetamide]
The “Selectivity IC50 catD/IC50 BACE” value of the first is lower: 3.4 for the first, 13.0 for the second.

Compared with `CC(=O)NC(Cc1cc(F)cc(F)c1)C(O)CNC1(c2cc(O)cc(CC(C)(C)C)c2)CC1` (centres unmarked) [Example 23.3, N-(1-(3,5-difluorophenyl)-3-hydroxy-4-(1-(3-hydroxy-5-neopentylphenyl)cyclopropylamino)butan-2-yl)acetamide], `CC(=O)NC(Cc1cc(F)cc(F)c1)C(O)CNC1(c2cnn(C(C)(C)C)c2)CC1` (centres unmarked) [Example 23.5, N-(4-(1-(1-tert-butyl-1H-pyrazol-4-yl)cyclopropylamino)-1-(3,5-difluorophenyl)-3-hydroxybutan-2-yl)acetamide] is higher in “Selectivity IC50 catD/IC50 BACE” value: 1.5 for the first, 6.0 for the second.

Going from `CC(=O)NC(Cc1cc(F)cc(F)c1)C(O)CNC1(c2ccn(CC(C)(C)C)n2)CC1` (centres unmarked) [Example 23.4, N-(1-(3,5-difluorophenyl)-3-hydroxy-4-(1-(1-neopentyl-1H-pyrazol-3-yl)cyclopropylamino)butan-2-yl)acetamide] to `CC(=O)NC(Cc1cc(F)cc(F)c1)C(O)CNC1(c2cccc(C(C)C(F)(F)F)c2)CC1` (centres unmarked) [Example 23.7, N-(1-(3,5-difluorophenyl)-3-hydroxy-4-(1-(3-(1,1,1-trifluoropropan-2-yl)phenyl)cyclopropylamino)butan-2-yl)acetamide], the “Selectivity IC50 catD/IC50 BACE” value falls from 3.5 to 1.7.

First: O=C(Cc1nnn[nH]1)NC(Cc1cc(F)cc(F)c1)C(O)CNC1(c2cccc(-n3cccn3)c2)CC1 (centres unmarked) [Example 23.8, N-(4-(1-(3-(1H-pyrazol-1-yl)phenyl)cyclopropylamino)-1-(3,5-difluorophenyl)-3-hydroxybutan-2-yl)-2-(1H-tetrazol-5-yl)acetamide]
Second: O=C(O)CCCC(=O)NC(Cc1cc(F)cc(F)c1)C(O)CNC1(c2cccc(-n3cccn3)c2)CC1 (centres unmarked) [Example 23.9, 4-(4-(1-(3-(1H-pyrazol-1-yl)phenyl)cyclopropylamino)-1-(3,5-difluorophenyl)-3-hydroxybutan-2-ylcarbamoyl)butanoic acid]
The “Selectivity IC50 catD/IC50 BACE” value of the first is higher: 3.3 for the first, 2.6 for the second.

In the case of `CC(=O)NC(Cc1cc(F)cc(F)c1)C(O)CNC1(c2csc(C(C)(C)C)c2)CC1` (centres unmarked) [Example 23.6, N-(4-(1-(5-tert-butylthiophen-3-yl)cyclopropylamino)-1-(3,5-difluorophenyl)-3-hydroxybutan-2-yl)acetamide], the “Selectivity IC50 catD/IC50 BACE” value is reported as 1.6 and 0.9.

tested on: not listed separately; experiment: In vitro permeability across MDCK cell monolayer; assay type: in vitro ADME, Canine; details: dog, MDCK, test compound 5 μM, 2 h at 37° C., apical to basolateral, read-out: Permeability Forward A > B
Procedure: (§1) Compounds were evaluated for permeability across a monolayer of Madin-Darby Canine Kidney (MDCK) cells in a transwell device following culturing for 4 days. […] A 0.5 mL of cell suspension (400,000 cells/mL) was placed on membrane and a 1.5 mL media in the bottom wells on day 1. On day 2 and day 3, cells were fed with new media. […] Media was removed from upper chambers and filled with mHBSS with or without CspA, and incubated 30 min at 37° C. with light shaking. Donor chambers were emptied, and filled with test compound at 5 μM in mHBSS. […] Plates were incubated for 2 h at 37° C. with shaking. After 2 h, both the donor and receiver wells were sampled. The bottom chambers were read in a fluorometer to assess LY leakage, and then the media from all wells were assayed by LC/MS/MS to determine compound levels.

`CC(=O)NC(Cc1cc(F)cc(F)c1)C(O)CNC1(c2cccc(C(C)C(F)(F)F)c2)CC1` (centres unmarked) [Example 23.28, N-(1-(3,5-difluorophenyl)-3-hydroxy-4-(1-(3-(1,1,1-trifluoropropan-2-yl)phenyl)cyclopropylamino)butan-2-yl)acetamide] and `CC(=O)NC(Cc1cc(F)cc(F)c1)C(O)CNC1(c2cccc(C(F)C(C)(C)F)c2)CC1` (centres unmarked) [Example 23.51, N-(4-(1-(3-(1,2-difluoro-2-methylpropyl)phenyl)cyclopropylamino)-1-(3,5-difluorophenyl)-3-hydroxybutan-2-yl)acetamide] are within 1.5-fold of each other in Papp A→B at 2 h, 5 μM: 12.6 ×10⁻⁶ cm/s for the first, 12.7 ×10⁻⁶ cm/s for the second.

Compared with `COC(=O)NC(Cc1cc(F)cc(F)c1)C(O)CNC1(c2cccc(-n3cccn3)c2)CC1` (centres unmarked) [Example 23.45, methyl 4-(1-(3-(1H-pyrazol-1-yl)phenyl)cyclopropylamino)-1-(3,5-difluorophenyl)-3-hydroxybutan-2-ylcarbamate], `Cc1cc(CC(=O)NC(Cc2cc(F)cc(F)c2)C(O)CNC2(c3cccc(-n4cccn4)c3)CC2)no1` (centres unmarked) [Example 23.49, N-(4-(1-(3-(1H-pyrazol-1-yl)phenyl)cyclopropylamino)-1-(3,5-difluorophenyl)-3-hydroxybutan-2-yl)-2-(5-methylisoxazol-3-yl)acetamide] is 1.6-fold lower in Papp A→B at 2 h, 5 μM: 17 ×10⁻⁶ cm/s for the first, 10.4 ×10⁻⁶ cm/s for the second.

`CC(=O)NC(Cc1cc(F)cc(F)c1)C(O)CNC1(c2cccc(N3CCSCC3)c2)CC1` (centres unmarked) [Example 23.48, N-(1-(3,5-difluorophenyl)-3-hydroxy-4-(1-(3-thiomorpholinophenyl)cyclopropylamino)butan-2-yl)acetamide] and `CC(=O)NC(Cc1cc(F)cc(F)c1)C(O)CNC1(c2cccc(C3COCO3)c2)CC1` (centres unmarked) [Example 23.53, N-(4-(1-(3-(1,3-dioxolan-4-yl)phenyl)cyclopropylamino)-1-(3,5-difluorophenyl)-3-hydroxybutan-2-yl)acetamide] are within 1.5-fold of each other in Papp A→B at 2 h, 5 μM: 10.9 ×10⁻⁶ cm/s for the first, 12.7 ×10⁻⁶ cm/s for the second.

`CC(=O)NC(Cc1cc(F)cc(F)c1)C(O)CNC1(c2cccc(C(C)(C)C(F)F)c2)CC1` (centres unmarked) [Example 23.50, N-(4-(1-(3-(1,1-difluoro-2-methylpropan-2-yl)phenyl)cyclopropylamino)-1-(3,5-difluorophenyl)-3-hydroxybutan-2-yl)acetamide] and `COCC(C)(C)c1cccc(C2(NCC(O)C(Cc3cc(F)cc(F)c3)NC(C)=O)CC2)c1` (centres unmarked) [Example 23.52, N-(1-(3,5-difluorophenyl)-3-hydroxy-4-(1-(3-(1-methoxy-2-methylpropan-2-yl)phenyl)cyclopropylamino)butan-2-yl)acetamide] are within 1.5-fold of each other in Papp A→B at 2 h, 5 μM: 12.8 ×10⁻⁶ cm/s for the first, 14.7 ×10⁻⁶ cm/s for the second.

Molecule `CC(=O)NC(Cc1cc(F)cc(F)c1)C(O)CNC1(c2ncc(C(C)(C)C)o2)CC1` (centres unmarked) [Example 23.56, N-(4-(1-(5-tert-butyloxazol-2-yl)cyclopropylamino)-1-(3,5-difluorophenyl)-3-hydroxybutan-2-yl)acetamide] has a Papp A→B at 2 h, 5 μM of 20.4 ×10⁻⁶ cm/s.

tested on: Madin-Darby Canine Kidney (MDCK) cells; experiment: In vitro permeability across MDCK cell monolayer; assay type: in vitro ADME; details: test compound 5 μM, 2 h at 37° C., apical to basolateral
Procedure: as §1

With `CC(=O)NC(Cc1cc(F)cc(F)c1)C(O)CNC1(c2cccc(-n3cccn3)c2)CC1` (centres unmarked) [Example 23.11, N-(4-(1-(3-(1H-pyrazol-1-yl)phenyl)cyclopropylamino)-1-(3,5-difluorophenyl)-3-hydroxybutan-2-yl)acetamide] the “Permeability Forward A > B” value was 12.21 ×10⁻⁶ cm/s and 18.32 ×10⁻⁶ cm/s.

`CC(=O)NC(Cc1cc(F)cc(F)c1)C(O)CNC1(c2cccc(-n3cccn3)c2)CC1` (centres unmarked) [Example 23.12, N-(4-(1-(3-(1H-pyrazol-1-yl)phenyl)cyclopropylamino)-1-(3,5-difluorophenyl)-3-hydroxybutan-2-yl)acetamide] and `CC(=O)NC(Cc1cc(F)cc(F)c1)C(O)CNC1(c2cccc(C(C)C(F)(F)F)c2)CC1` (centres unmarked) [Example 23.28, N-(1-(3,5-difluorophenyl)-3-hydroxy-4-(1-(3-(1,1,1-trifluoropropan-2-yl)phenyl)cyclopropylamino)butan-2-yl)acetamide] are within 1.5-fold of each other in “Permeability Forward A > B” value: 16.29 ×10⁻⁶ cm/s for the first, 19.62 ×10⁻⁶ cm/s for the second.

For `CC(=O)NC(Cc1cc(F)cc(F)c1)C(O)CNC1(c2cccc(-n3cccn3)c2)CC1` (centres unmarked) [Example 23.18, N-(4-(1-(3-(1H-pyrazol-1-yl)phenyl)cyclopropylamino)-1-(3,5-difluorophenyl)-3-hydroxybutan-2-yl)acetamide], the “Permeability Forward A > B” value was 8.78 ×10⁻⁶ cm/s.
In the case of `CC(=O)NC(Cc1cc(F)cc(F)c1)C(O)CNC1(c2cccc(-n3cccn3)c2)CC1` (centres unmarked) [Example 23.27, N-(4-(1-(3-(1H-pyrazol-1-yl)phenyl)cyclopropylamino)-1-(3,5-difluorophenyl)-3-hydroxybutan-2-yl)acetamide], the “Permeability Forward A > B” value is reported as 16.35 ×10⁻⁶ cm/s.
